# Literature values in patent US4312857A, “Novel derivatives of beta-endorphin, intermediates therefor and compositions and methods employing said derivatives” (The United States of America as represented by the Veterans, priority 1977, dated 1982).
# Key:
# [1] = system: rat; conditions: injected directly into the brain of the rat
# [2] = system: partially purified brain opiate receptor sites
substance,measurement,setting,value
H-Tyr-Gly-Gly-Phe-Met-OH [methionine enkephalin],analgesic effect,[1],weak analgesic agent of short duration
same,binding to partially purified brain opiate receptor sites,[2],binds stereo-specifically
